Data as given in patent publication US10160762B2, “6-alkyl dihydropyrazolopyrimidinone compounds as PDE2 inhibitors” (Merck Sharp & Dohme Corp., priority 2015, dated 2018).

molecular target: T1, human PDE2A1 (Homo sapiens, UniProt O00408); test: IMAP FP PDE assay, human PDE2A1; format: biochemical; conditions: Lab B; read-out: Human PDE2 Ki (nM) Lab B
T1 construct: GST; purchased BPS Bioscience (San Diego, Calif.) 60020; host or cells: insect cells
Summary of the method: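 GST-tagged human PDE2A1 from insect cells; substrate 50 nM FAM-cAMP containing 1000 nM cGMP in Tris pH 7.2/MgCl2/DTT buffer, enzyme giving 20% conversion. 60 min at room temperature, IMAP binding reagent, fluorescence polarization read. Apparent Ki from FP readings using apparent KM 10,000 nM; ten-point 3-fold titrations.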

T1 sequence (O00408 1-920 isoform O00408-2): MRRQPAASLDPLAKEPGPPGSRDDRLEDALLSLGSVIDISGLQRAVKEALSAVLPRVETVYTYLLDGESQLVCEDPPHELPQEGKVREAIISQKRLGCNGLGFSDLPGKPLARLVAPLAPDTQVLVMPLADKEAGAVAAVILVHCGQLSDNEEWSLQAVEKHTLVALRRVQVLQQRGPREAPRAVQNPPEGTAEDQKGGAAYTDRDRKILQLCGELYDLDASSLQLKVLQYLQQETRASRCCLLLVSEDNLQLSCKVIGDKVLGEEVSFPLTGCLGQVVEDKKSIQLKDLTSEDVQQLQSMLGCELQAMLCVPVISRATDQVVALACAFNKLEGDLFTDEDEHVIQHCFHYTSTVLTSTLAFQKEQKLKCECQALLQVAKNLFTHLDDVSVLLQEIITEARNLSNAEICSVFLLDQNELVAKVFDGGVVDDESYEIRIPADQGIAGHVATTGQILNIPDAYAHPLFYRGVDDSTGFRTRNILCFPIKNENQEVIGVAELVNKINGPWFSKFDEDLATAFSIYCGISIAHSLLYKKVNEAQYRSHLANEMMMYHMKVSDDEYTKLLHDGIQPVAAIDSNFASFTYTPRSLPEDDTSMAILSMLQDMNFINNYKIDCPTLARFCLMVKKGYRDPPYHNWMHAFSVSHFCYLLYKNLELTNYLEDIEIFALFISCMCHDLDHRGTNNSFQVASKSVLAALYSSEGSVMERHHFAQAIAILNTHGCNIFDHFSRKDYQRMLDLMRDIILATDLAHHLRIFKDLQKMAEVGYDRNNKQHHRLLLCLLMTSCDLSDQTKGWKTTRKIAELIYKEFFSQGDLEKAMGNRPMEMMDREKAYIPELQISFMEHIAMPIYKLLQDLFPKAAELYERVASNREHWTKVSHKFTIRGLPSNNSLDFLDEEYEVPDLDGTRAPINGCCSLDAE

SMILES | Ki
Cc1nc2c(c(C(=O)N3CCOCC3)nn2C(C)c2ccc(C(F)(F)F)cc2)c(=O)[nH]1 (single isomer, unassigned) [Example 270, (R)- or (S)-6-Methyl-3-(morpholine-4-carbonyl)-1-(1-(4-(trifluoromethyl)phenyl)ethyl)-1H-pyrazolo[3,4-d]pyrimidin-4(5H)-one] | > 2960 nM
Cc1nc2c(c(C(=O)N3CCOCC3)nn2C(C)c2ccc(C(F)(F)F)cc2)c(=O)[nH]1 (single isomer, unassigned) [Example 271, (S)- or (R)-6-Methyl-3-(morpholine-4-carbonyl)-1-(1-(4-(trifluoromethyl)phenyl)ethyl)-1H-pyrazolo[3,4-d]pyrimidin-4(5H)-one] | > 2960 nM
CC(=O)NCc1nn(C(C)c2ccc(C(F)(F)F)cc2)c2nc(C)[nH]c(=O)c12 (single isomer, unassigned) [Example 276] | ~1520 nM
CC(=O)NCc1nn(C(C)c2ccc(C(F)(F)F)cc2)c2nc(C)[nH]c(=O)c12 (single isomer, unassigned) [Example 277] | ~1300 nM
Cc1nc2c(c(OCC(F)(F)F)nn2C(C)c2ccc(C(F)(F)F)cc2)c(=O)[nH]1 (single isomer, unassigned) [Example 287] | 375 nM
Cc1nc2c(c(OCC(F)(F)F)nn2C(C)c2ccc(C(F)(F)F)cc2)c(=O)[nH]1 (single isomer, unassigned) [Example 288] | 350 nM
CC(=O)c1ccc(C(C)n2nc(CO)c3c(=O)[nH]c(C)nc32)cc1 (single isomer, unassigned) [Example 290] | > 2960 nM
CC(=O)c1ccc(C(C)n2nc(CO)c3c(=O)[nH]c(C)nc32)cc1 (single isomer, unassigned) [Example 291] | 104 nM
CC(c1ccc(C(F)(F)F)cc1)n1nc(CO)c2c(=O)[nH]c(C3CCCO3)nc21 (single isomer, unassigned) [Example 311, (R,R)- or (S,S)- or (R,S)- or (S,R)-3-(Hydroxymethyl)-6-(tetrahydrofuran-2-yl)-1-(1-(4-(trifluoromethyl)-phenyl)ethyl)-1,5-dihydro-4H-pyrazolo[3,4-d]pyrimidin-4-one] | ~1210 nM
CC(c1ccc(C(F)(F)F)cc1)n1nc(CO)c2c(=O)[nH]c(C3CCCO3)nc21 (single isomer, unassigned) [Example 312, (S,S)- or (R,S)- or (S,R)- or (R,R)-3-(Hydroxymethyl)-6-(tetrahydrofuran-2-yl)-1-(1-(4-(trifluoromethyl-)phenyl)ethyl)-1,5-dihydro-4H-pyrazolo[3,4-d]pyrimidin-4-one] | ~1860 nM
CC(c1ccc(C(F)(F)F)cc1)n1nc(CO)c2c(=O)[nH]c(C3CCCO3)nc21 (single isomer, unassigned) [Example 313, (R,S)- or (S,R)- or (R,R)- or (S,S)-3-(Hydroxymethyl)-6-(tetrahydrofuran-2-yl)-1-(1-(4-(trifluoromethyl)-phenyl)ethyl)-1,5-dihydro-4H-pyrazolo[3,4-d]pyrimidin-4-one] | 22 nM
CC(c1ccc(C(F)(F)F)cc1)n1nc(CO)c2c(=O)[nH]c(C3CCCO3)nc21 (single isomer, unassigned) [Example 314, (S,R)- or (R,R)- or (S,S)- or (R,S)-3-(Hydroxymethyl)-6-(tetrahydrofuran-2-yl)-1-(1-(4-(trifluoromethyl)-phenyl)ethyl)-1,5-dihydro-4H-pyrazolo[3,4-d]pyrimidin-4-one] | 38 nM
CC(c1ccc(S(F)(F)(F)(F)F)cc1)n1nc(CO)c2c(=O)[nH]c(C3CC3)nc21 (single isomer, unassigned) [Example 315, (R)- or (S)-6-Cyclopropyl-3-(hydroxymethyl)-1-{1-[4-(pentafluoro-sulfanyl)-phenyl]-ethyl}-1,5-dihydro-4H-pyrazolo[3,4-d]pyrimidin-4-one] | 3.3 nM
CC(c1ccc(S(F)(F)(F)(F)F)cc1)n1nc(CO)c2c(=O)[nH]c(C3CC3)nc21 (single isomer, unassigned) [Example 316, (S)- or (R)-6-Cyclopropyl-3-(hydroxymethyl)-1-{1-[4-(pentafluoro-sulfanyl)-phenyl]ethyl}-1,5-dihydro-4H-pyrazolo[3,4-d]pyrimidin-4-one] | 72 nM
COCc1nc2c(c(CO)nn2C(C)c2ccc(S(F)(F)(F)(F)F)cc2)c(=O)[nH]1 (single isomer, unassigned) [Example 317, (R)- or (S)-3-(Hydroxy-methyl)-6-(methoxy-methyl)-1-{1-[4-(pentafluoro-sulfanyl)-phenyl]ethyl}-1,5-dihydro-4H-pyrazolo[3,4-d]pyrimidin-4-one] | 150 nM
COCc1nc2c(c(CO)nn2C(C)c2ccc(S(F)(F)(F)(F)F)cc2)c(=O)[nH]1 (single isomer, unassigned) [Example 318, (S)- or (R)-3-(Hydroxymethyl)-6-(methoxymethyl)-1-{1-[4-(pentafluorosulfanyl)phenyl]ethyl}-1,5-dihydro-4H-pyrazolo[3,4-d]pyrimidin-4-one] | 3.8 nM
Cc1nc2c(c([C@@H](C)CO)nn2[C@@H](C)c2ccc(C(F)(F)F)cc2)c(=O)[nH]1 (single isomer, unassigned) [Example 320] | 1.2 nM
Cc1nc2c(c([C@H](C)CO)nn2[C@@H](C)c2ccc(C(F)(F)F)cc2)c(=O)[nH]1 (single isomer, unassigned) [Example 321] | 33 nM
Cc1nc2c(c(Br)nn2C(C)c2ccc(C(F)(F)F)cc2)c(=O)[nH]1 (single isomer, unassigned) [Example 324] | 465 nM

Now from value to molecule:

Ki | SMILES
157 nM | CC(c1ccc(C(F)(F)F)cc1)n1nc(CO)c2c(=O)[nH]c(C3CC3)nc21 (single isomer, unassigned) [Example 299, (R)- or (S)-6-Cyclopropyl-3-(hydroxymethyl)-1-{1-[4-(trifluoromethyl)phenyl]ethyl}-1,5-dihydro-4H-pyrazolo[3,4-d]pyrimidin-4-one]
2.8 nM | CC(c1ccc(C(F)(F)F)cc1)n1nc(CO)c2c(=O)[nH]c(C3CC3)nc21 (single isomer, unassigned) [Example 300, (S)- or (R)-6-Cyclopropyl-3-(hydroxymethyl)-1-{1-[4-(trifluoromethyl)phenyl]ethyl}-1,5-dihydro-4H-pyrazolo[3,4-d]pyrimidin-4-one]
4.7 nM | CCc1nc2c(c(CO)nn2C(C)c2ccc(C(F)(F)F)cc2)c(=O)[nH]1 (single isomer, unassigned) [Example 301, (R)- or (S)-6-Ethyl-3-(hydroxymethyl)-1-{1-[4-(trifluoromethyl)phenyl]ethyl}-1,5-dihydro-4H-pyrazolo[3,4-d]pyrimidin-4-one]
116 nM | CCc1nc2c(c(CO)nn2C(C)c2ccc(C(F)(F)F)cc2)c(=O)[nH]1 (single isomer, unassigned) [Example 302, (S)- or (R)-6-Ethyl-3-(hydroxymethyl)-1-{1-[4-(trifluoromethyl)phenyl]ethyl}-1,5-dihydro-4H-pyrazolo[3,4-d]pyrimidin-4-one]
4.7 nM | CCCc1nc2c(c(CO)nn2C(C)c2ccc(C(F)(F)F)cc2)c(=O)[nH]1 (single isomer, unassigned) [Example 303, (R)- or (S)-3-(Hydroxymethyl)-6-propyl-1-(1-(4-(trifluoromethyl)phenyl)ethyl)-1,5-dihydro-4H-pyrazolo[3,4-d]pyrimidin-4-one]
263 nM | CCCc1nc2c(c(CO)nn2C(C)c2ccc(C(F)(F)F)cc2)c(=O)[nH]1 (single isomer, unassigned) [Example 304, (S)- or (R)-3-(Hydroxymethyl)-6-propyl-1-(1-(4-(trifluoromethyl)phenyl)ethyl)-1,5-dihydro-4H-pyrazolo[3,4-d]pyrimidin-4-one]
17 nM | CC(C)Cc1nc2c(c(CO)nn2C(C)c2ccc(C(F)(F)F)cc2)c(=O)[nH]1 (single isomer, unassigned) [Example 305, (R)- or (S)-3-(Hydroxy-methyl)-6-isobutyl-1-(1-(4-(trifluoromethyl)phenyl)ethyl)-1,5-dihydro-4H-pyrazolo-[3,4-d]pyrimidin-4-one]
568 nM | CC(C)Cc1nc2c(c(CO)nn2C(C)c2ccc(C(F)(F)F)cc2)c(=O)[nH]1 (single isomer, unassigned) [Example 306, (S)- or (R)-3-(Hydroxy-methyl)-6-isobutyl-1-(1-(4-(trifluoromethyl)phenyl)ethyl)-1,5-dihydro-4H-pyrazolo[3,4-d]pyrimidin-4-one]
13 nM | CC(c1ccc(C(F)(F)F)cc1)n1nc(CO)c2c(=O)[nH]c(CC3CCCC3)nc21 (single isomer, unassigned) [Example 307, (R)- or (S)-6-(Cyclopentyl-methyl)-3-(hydroxymethyl)-1-(1-(4-(trifluoromethyl)-phenyl)ethyl)-1,5-dihydro-4H-pyrazolo[3,4-d]pyrimidin-4-one]
329 nM | CC(c1ccc(C(F)(F)F)cc1)n1nc(CO)c2c(=O)[nH]c(CC3CCCC3)nc21 (single isomer, unassigned) [Example 308, (S)- or (R)-6-(Cyclopentyl-methyl)-3-(hydroxymethyl)-1-(1-(4-(trifluoromethyl)phenyl)ethyl)-1,5-dihydro-4H-pyrazolo[3,4-d]pyrimidin-4-one]
420 nM | CC(c1ccc(C(F)(F)F)cc1)n1nc(CO)c2c(=O)[nH]c(CC3CC3)nc21 (single isomer, unassigned) [Example 309, (R)- or (S)-6-(Cyclopropyl-methyl)-3-(hydroxymethyl)-1-(1-(4-(trifluoromethyl)phenyl)ethyl)-1,5-dihydro-4H-pyrazolo[3,4-d]pyrimidin-4-one]
11 nM | CC(c1ccc(C(F)(F)F)cc1)n1nc(CO)c2c(=O)[nH]c(CC3CC3)nc21 (single isomer, unassigned) [Example 310, (S)- or (R)-6-(Cyclopropyl-methyl)-3-(hydroxymethyl)-1-(1-(4-(trifluoromethyl)phenyl)ethyl)-1,5-dihydro-4H-pyrazolo[3,4-d]pyrimidin-4-one]
